Data taken from ChEMBL document CHEMBL1799910, “Optimization of 1,2,3,4-tetrahydroacridin-9(10H)-ones as antimalarials utilizing structure-activity and structure-property relationships” (J Med Chem, 2011).
Converted amounts (≈) assume the structure as drawn.

Experiments:
Plasmodium falciparum [1] = assay: Antimalarial activity against chloroquine and pyrimethamine-resistant Plasmodium falciparum W2 infected in human A positive erythrocytes after 72 hrs by SYBR Green I assay; format: functional, organism-based; details: W2, 72 h
[2] = Partition coefficient, log D of the compound at pH 7.4 by HPLC analysis; details: octanol/water
Plasmodium falciparum [3] = assay: Resistance index, ratio of EC50 for chloroquine, mefloquine, pyrimethamine and atovaquone-resistant Plasmodium falciparum TM90-C2B to EC50 for chloroquine and pyrimethamine-resistant Plasmodium falciparum W2; format: functional
J774 = assay: Cytotoxicity against mouse J774 cells after 72 hrs by Cell titer 96 aqueous one solution cell proliferation assay; format: cell-based; details: J774, 72 h
[4] = Aqueous solubility of compound at pH 7.4 by HPLC analysis; details: buffer
[5] = Permeability of the compound by PAMPA method at pH 7.4; format: ADME; details: read-out: permeability
Plasmodium falciparum [6] = assay: Antimalarial activity against chloroquine, mefloquine, pyrimethamine and atovaquone-resistant Plasmodium falciparum TM90-C2B infected in human A positive erythrocytes after 72 hrs by SYBR Green I assay; format: functional, organism-based
[7] = Cytotoxicity index, ratio of EC50 for mouse J774 cells to EC50 for chloroquine, mefloquine, pyrimethamine and atovaquone-resistant Plasmodium falciparum TM90-C2B; format: cell-based; details: read-out: Ratio EC50

O=c1c2c([nH]c3ccc(Cl)cc13)CCCC2
EC50 (Plasmodium falciparum [1]): 99.4 nM
logD [2]: 2
Ratio EC50 (Plasmodium falciparum [3]): 0.63
EC50 (J774): > 2000 nM
solubility [4]: 4 µM (≈ 0.935 µg/mL)
Papp [5]: 57 ×10⁻⁶ cm/s
EC50 (Plasmodium falciparum [6]): 63.4 nM
selectivity ratio [7]: ≥ 100

O=c1c2c([nH]c3cccc(Cl)c13)CCCC2
EC50 (Plasmodium falciparum [1]): 368 nM
logD [2]: 1.8
Ratio EC50 (Plasmodium falciparum [3]): 1.22
EC50 (J774): > 5000 nM
solubility [4]: 99 µM (≈ 23.1 µg/mL)
Papp [5]: 47 ×10⁻⁶ cm/s
EC50 (Plasmodium falciparum [6]): 447 nM
selectivity ratio [7]: ≥ 100

CC1(C)CCc2[nH]c3ccccc3c(=O)c2C1
EC50 (Plasmodium falciparum [1]): 421 nM
logD [2]: 1.8
Ratio EC50 (Plasmodium falciparum [3]): 0.7
EC50 (J774): > 20000 nM
solubility [4]: 35 µM (≈ 7.96 µg/mL)
Papp [5]: 43 ×10⁻⁶ cm/s
EC50 (Plasmodium falciparum [6]): 295 nM
selectivity ratio [7]: ≥ 100

COc1cccc2c(=O)c3c([nH]c12)CCC(C)(C)C3
EC50 (Plasmodium falciparum [1]): 1990 nM
logD [2]: 2.4
Ratio EC50 (Plasmodium falciparum [3]): 0.31
EC50 (J774): > 40000 nM
solubility [4]: 91 µM (≈ 23.4 µg/mL)
Papp [5]: 95 ×10⁻⁶ cm/s
EC50 (Plasmodium falciparum [6]): 620 nM
selectivity ratio [7]: ≥ 100

COc1ccc2[nH]c3c(c(=O)c2c1)CC(C)(C)CC3
EC50 (Plasmodium falciparum [1]): 8400 nM
logD [2]: 2
Ratio EC50 (Plasmodium falciparum [3]): >1.16
EC50 (J774): > 20000 nM
solubility [4]: 38 µM (≈ 9.78 µg/mL)
Papp [5]: 73 ×10⁻⁶ cm/s
EC50 (Plasmodium falciparum [6]): > 9720 nM
selectivity ratio [7]: ≥ 100

COc1cccc2[nH]c3c(c(=O)c12)CC(C)(C)CC3
EC50 (Plasmodium falciparum [1]): 5240 nM
logD [2]: 1.9
Ratio EC50 (Plasmodium falciparum [3]): 0.67
EC50 (J774): > 20000 nM
solubility [4]: 83 µM (≈ 21.4 µg/mL)
Papp [5]: 54 ×10⁻⁶ cm/s
EC50 (Plasmodium falciparum [6]): 3500 nM
selectivity ratio [7]: ≥ 100

Cc1cccc2c(=O)c3c([nH]c12)CCC(C)(C)C3
EC50 (Plasmodium falciparum [1]): 791 nM
logD [2]: 2.3
Ratio EC50 (Plasmodium falciparum [3]): 0.67
EC50 (J774): > 40000 nM
solubility [4]: 38 µM (≈ 9.17 µg/mL)
Papp [5]: 90 ×10⁻⁶ cm/s
EC50 (Plasmodium falciparum [6]): 531 nM
selectivity ratio [7]: ≥ 100

Cc1ccc2c(=O)c3c([nH]c2c1)CCC(C)(C)C3
EC50 (Plasmodium falciparum [1]): 166 nM
logD [2]: 2.4
Ratio EC50 (Plasmodium falciparum [3]): 11.9
EC50 (J774): > 40000 nM
solubility [4]: 75 µM (≈ 18.1 µg/mL)
Papp [5]: 82 ×10⁻⁶ cm/s
EC50 (Plasmodium falciparum [6]): 1980 nM
selectivity ratio [7]: ≥ 100

Cc1ccc2[nH]c3c(c(=O)c2c1)CC(C)(C)CC3
EC50 (Plasmodium falciparum [1]): 474 nM
logD [2]: 2.4
Ratio EC50 (Plasmodium falciparum [3]): 4.6
EC50 (J774): > 40000 nM
solubility [4]: 52 µM (≈ 12.5 µg/mL)
Papp [5]: 84 ×10⁻⁶ cm/s
EC50 (Plasmodium falciparum [6]): 2180 nM
selectivity ratio [7]: ≥ 100

Cc1cccc2[nH]c3c(c(=O)c12)CC(C)(C)CC3
EC50 (Plasmodium falciparum [1]): 3020 nM
logD [2]: 2.7
Ratio EC50 (Plasmodium falciparum [3]): 1.37
EC50 (J774): > 40000 nM
solubility [4]: 45 µM (≈ 10.9 µg/mL)
Papp [5]: 269 ×10⁻⁶ cm/s
EC50 (Plasmodium falciparum [6]): 4130 nM
selectivity ratio [7]: ≥ 100

CC1(C)CCc2[nH]c3c(Cl)cccc3c(=O)c2C1
EC50 (Plasmodium falciparum [1]): 4670 nM
logD [2]: 2.9
Ratio EC50 (Plasmodium falciparum [3]): 1.01
EC50 (J774): > 20000 nM
solubility [4]: 62 µM (≈ 16.2 µg/mL)
Papp [5]: 427 ×10⁻⁶ cm/s
EC50 (Plasmodium falciparum [6]): 4730 nM
selectivity ratio [7]: ≥ 100

CC1(C)CCc2[nH]c3cc(Cl)ccc3c(=O)c2C1
EC50 (Plasmodium falciparum [1]): 240 nM
logD [2]: 2.8
Ratio EC50 (Plasmodium falciparum [3]): 3.45
EC50 (J774): > 40000 nM
solubility [4]: 1 µM (≈ 0.262 µg/mL)
Papp [5]: 62 ×10⁻⁶ cm/s
EC50 (Plasmodium falciparum [6]): 829 nM
selectivity ratio [7]: ≥ 100

CC1(C)CCc2[nH]c3ccc(Cl)cc3c(=O)c2C1
EC50 (Plasmodium falciparum [1]): 256 nM
logD [2]: 2.6
Ratio EC50 (Plasmodium falciparum [3]): 0.46
EC50 (J774): > 40000 nM
solubility [4]: 1 µM (≈ 0.262 µg/mL)
Papp [5]: 63 ×10⁻⁶ cm/s
EC50 (Plasmodium falciparum [6]): 118 nM
selectivity ratio [7]: ≥ 100

CC1(C)CCc2[nH]c3cccc(Cl)c3c(=O)c2C1
EC50 (Plasmodium falciparum [1]): 373 nM
logD [2]: 2.4
Ratio EC50 (Plasmodium falciparum [3]): 1.61
EC50 (J774): > 40000 nM
solubility [4]: 23 µM (≈ 6.02 µg/mL)
Papp [5]: 117 ×10⁻⁶ cm/s
EC50 (Plasmodium falciparum [6]): 599 nM
selectivity ratio [7]: ≥ 100

CC1(C)CCc2c([nH]c3ccccc3c2=O)C1
EC50 (Plasmodium falciparum [1]): 1870 nM
logD [2]: 1.9
Ratio EC50 (Plasmodium falciparum [3]): 0.18
EC50 (J774): > 40000 nM
solubility [4]: 64 µM (≈ 14.5 µg/mL)
Papp [5]: 43 ×10⁻⁶ cm/s
EC50 (Plasmodium falciparum [6]): 335 nM
selectivity ratio [7]: ≥ 100

COc1cccc2c(=O)c3c([nH]c12)CC(C)(C)CC3
EC50 (Plasmodium falciparum [1]): 6540 nM
logD [2]: 2.4
Ratio EC50 (Plasmodium falciparum [3]): 0.38
EC50 (J774): > 20000 nM
solubility [4]: 91 µM (≈ 23.4 µg/mL)
Papp [5]: 114 ×10⁻⁶ cm/s
EC50 (Plasmodium falciparum [6]): 2490 nM
selectivity ratio [7]: ≥ 100

COc1cccc2[nH]c3c(c(=O)c12)CCC(C)(C)C3
EC50 (Plasmodium falciparum [1]): > 9720 nM
logD [2]: 1.7
Ratio EC50 (Plasmodium falciparum [3]): <0.42
EC50 (J774): > 20000 nM
solubility [4]: 64 µM (≈ 16.5 µg/mL)
Papp [5]: 43 ×10⁻⁶ cm/s
EC50 (Plasmodium falciparum [6]): 4100 nM
selectivity ratio [7]: ≥ 100

Cc1cccc2c(=O)c3c([nH]c12)CC(C)(C)CC3
EC50 (Plasmodium falciparum [1]): 2370 nM
logD [2]: 2.3
Ratio EC50 (Plasmodium falciparum [3]): 0.74
EC50 (J774): > 40000 nM
solubility [4]: 60 µM (≈ 14.5 µg/mL)
Papp [5]: 88 ×10⁻⁶ cm/s
EC50 (Plasmodium falciparum [6]): 1750 nM
selectivity ratio [7]: ≥ 100

Cc1ccc2c(=O)c3c([nH]c2c1)CC(C)(C)CC3
EC50 (Plasmodium falciparum [1]): 1460 nM
logD [2]: 2.49
Ratio EC50 (Plasmodium falciparum [3]): 0.66
EC50 (J774): > 10000 nM
solubility [4]: 17 µM (≈ 4.1 µg/mL)
Papp [5]: 53 ×10⁻⁶ cm/s
EC50 (Plasmodium falciparum [6]): 965 nM
selectivity ratio [7]: ≥ 100

Cc1ccc2[nH]c3c(c(=O)c2c1)CCC(C)(C)C3
EC50 (Plasmodium falciparum [1]): 587 nM
logD [2]: 2.4
Ratio EC50 (Plasmodium falciparum [3]): 0.54
EC50 (J774): > 2000 nM
solubility [4]: 4 µM (≈ 0.965 µg/mL)
Papp [5]: 78 ×10⁻⁶ cm/s
EC50 (Plasmodium falciparum [6]): 319 nM
selectivity ratio [7]: ≥ 100

CC1(C)CCc2c([nH]c3c(Cl)cccc3c2=O)C1
EC50 (Plasmodium falciparum [1]): 6700 nM
logD [2]: 3
Ratio EC50 (Plasmodium falciparum [3]): >1.42
EC50 (J774): > 20000 nM
solubility [4]: 20 µM (≈ 5.24 µg/mL)
Papp [5]: 407 ×10⁻⁶ cm/s
EC50 (Plasmodium falciparum [6]): > 9550 nM
selectivity ratio [7]: ≥ 100

CC1(C)CCc2c([nH]c3ccc(Cl)cc3c2=O)C1
EC50 (Plasmodium falciparum [1]): 215 nM
logD [2]: 2.7
Ratio EC50 (Plasmodium falciparum [3]): 2.5
EC50 (J774): > 1000 nM
solubility [4]: 2 µM (≈ 0.524 µg/mL)
Papp [5]: 96 ×10⁻⁶ cm/s
EC50 (Plasmodium falciparum [6]): 538 nM
selectivity ratio [7]: ≥ 100

CC1(C)CCc2c([nH]c3cccc(Cl)c3c2=O)C1
EC50 (Plasmodium falciparum [1]): 2990 nM
logD [2]: 2.5
Ratio EC50 (Plasmodium falciparum [3]): 1.78
EC50 (J774): > 5000 nM
solubility [4]: 6 µM (≈ 1.57 µg/mL)
Papp [5]: 103 ×10⁻⁶ cm/s
EC50 (Plasmodium falciparum [6]): 5330 nM
selectivity ratio [7]: ≥ 100

Cc1cccc2[nH]c3c(c(=O)c12)CCCC3
EC50 (Plasmodium falciparum [1]): 6250 nM
logD [2]: 2.1
Ratio EC50 (Plasmodium falciparum [3]): 0.73
EC50 (J774): > 20000 nM
solubility [4]: 99 µM (≈ 21.1 µg/mL)
Papp [5]: 87 ×10⁻⁶ cm/s
EC50 (Plasmodium falciparum [6]): 4570 nM
selectivity ratio [7]: ≥ 100

O=c1c2c([nH]c3c(Cl)cccc13)CCCC2
EC50 (Plasmodium falciparum [1]): 1350 nM
logD [2]: 2.2
Ratio EC50 (Plasmodium falciparum [3]): >7.9
EC50 (J774): > 20000 nM
solubility [4]: 107 µM (≈ 25 µg/mL)
Papp [5]: 107 ×10⁻⁶ cm/s
EC50 (Plasmodium falciparum [6]): > 9000 nM
selectivity ratio [7]: ≥ 100

O=c1c2c([nH]c3cc(Cl)ccc13)CCCC2
EC50 (Plasmodium falciparum [1]): 137 nM
logD [2]: 2.2
Ratio EC50 (Plasmodium falciparum [3]): 0.89
EC50 (J774): > 10000 nM
solubility [4]: 15 µM (≈ 3.51 µg/mL)
Papp [5]: 75 ×10⁻⁶ cm/s
EC50 (Plasmodium falciparum [6]): 122 nM
selectivity ratio [7]: ≥ 100
